# Assays:
# Plasmodium falciparum = assay: Antiplasmodial activity against chloroquine-resistant Plasmodium falciparum FcB1 infected in RBC assessed as inhibition of [3H]-hypoxanthine incorporation after 48 hrs by beta-counting; assay type: functional, organism-based; conditions: FcB1/Columbia
# [1] = Selectivity index, ratio of CC50 for human MCF7 cells to IC50 for chloroquine-resistant Plasmodium falciparum FcB1 infected in RBC; assay type: functional
# [2] = Cytotoxicity against human MCF7 cells after 48 hrs by XTT reduction assay; assay type: cell-based
smiles,measurement,setting,value
O=C1C(c2ccccc2)=Nc2ccccc21,IC50,Plasmodium falciparum,1.33 µM
same,Ratio CC50/IC50,[1],135
same,CC50 at 48 h,[2],164 µM
COc1ccc(C2=Nc3ccccc3C2=O)cc1,IC50,Plasmodium falciparum,0.514 µM
same,Ratio CC50/IC50,[1],74
same,CC50 at 48 h,[2],38 µM
O=C1C(c2ccc(Cl)cc2)=Nc2ccccc21,IC50,Plasmodium falciparum,0.192 µM
same,Ratio CC50/IC50,[1],105
same,CC50 at 48 h,[2],20.3 µM
O=C1C(c2ccc(O)cc2)=Nc2ccccc21,IC50,Plasmodium falciparum,0.101 µM
same,Ratio CC50/IC50,[1],1289
same,CC50 at 48 h,[2],130 µM
COc1ccc2c(c1)C(=O)C(c1ccccc1)=N2,IC50,Plasmodium falciparum,0.141 µM
same,Ratio CC50/IC50,[1],146
same,CC50 at 48 h,[2],21 µM
COc1ccc(C2=Nc3ccc(OC)cc3C2=O)cc1,IC50,Plasmodium falciparum,0.08 µM
same,Ratio CC50/IC50,[1],381.4
same,CC50 at 48 h,[2],30.7 µM
COc1ccc2c(c1)C(=O)C(c1ccc(N(C)C)cc1)=N2,IC50,Plasmodium falciparum,0.049 µM
same,Ratio CC50/IC50,[1],423.4
same,CC50 at 48 h,[2],20.7 µM
COc1ccc2c(c1)C(=O)C(c1ccc(OC(C)C)cc1)=N2,IC50,Plasmodium falciparum,0.088 µM
same,Ratio CC50/IC50,[1],127
same,CC50 at 48 h,[2],11.2 µM
COc1ccc2c(c1)C(=O)C(c1ccc(O)cc1)=N2,IC50,Plasmodium falciparum,0.099 µM
same,Ratio CC50/IC50,[1],164
same,CC50 at 48 h,[2],16 µM
C[C@H]1[C@H](OC(=O)CCC(=O)O)O[C@@H]2O[C@@]3(C)CC[C@H]4[C@H](C)CC[C@@H]1[C@@]24OO3 [SODIUM ARESUNATE],IC50,Plasmodium falciparum,0.006 µM

# Reference: ChEMBL document CHEMBL3232725, “2-Aryl-3H-indol-3-ones: synthesis, electrochemical behaviour and antiplasmodial activities” (Eur J Med Chem, 2014)
